Data reported in US20260224720A1, “ECTEINASCIDIN DERIVATIVE ANTIBODY DRUG CONJUGATES” (priority 2023, published 2026).

Key:
SUDHL1 (CD30 positive) = experiment: Suspension cells cytotoxicity assay (CellTiter-Glo), SUDHL1; type: cell-based; settings: Homo sapiens, SU-DHL-1, 3-5 days
Method: Three to five thousand (3,000-5,000) cells per well were seeded in tissue culture plates in 50 μL/well culture media and incubated at 37° C. for 18-24 hours.
Serial dilutions of ADCs in culture media were then dispensed into the plates at 50 μL/well. […] CellTiter-Glo reagent was prepared per manufacturer's instructions and added at 100 μL/well to the cultures. CellTiter-Glo allows for relative enumeration of metabolically active cells by quantifying intracellular ATP concentrations. […] Luminescence signals were detected using a standard plate reader and IC50s were calculated by logistic nonlinear regression using GraphPad Prism (GraphPad Software, San Diego, CA).

SKBR3 (Her2 positive) = experiment: Adherent cells cytotoxicity assay (CellTiter-Glo), SKBR3; type: cell-based; settings: Homo sapiens, SK-BR-3, 3 to 5 days
Method: (§1) Adherent cells were cultured in a T75 flask to ~50-80% confluency and harvested with trypsin into a single cell suspension. Three to five thousand (3,000-5,000) cells per well were seeded in tissue culture plates in 50 μL/well culture media and incubated at 37° C. for 18-24 hours. Serial dilutions of ADCs in culture media were then dispensed into the plates at 50 μL/well. After plating and treatment, cells were returned to the incubator for an additional 3 to 5 days. CellTiter-Glo reagent was prepared per manufacturer's instructions and added at 100 μL/well to the cultures. CellTiter-Glo allows for relative enumeration of metabolically active cells by quantifying intracellular ATP concentrations. […] Luminescence signals were detected using a standard plate reader and IC50s were calculated by logistic nonlinear regression using GraphPad Prism (GraphPad Software, San Diego, CA).

[1] = system: Confluent HCC1954 (Her2 positive); experiment: Adherent cells cytotoxicity assay (CellTiter-Glo), confluent HCC1954; type: cell-based; settings: Homo sapiens
HCC1954 (Her2 positive) = experiment: Adherent cells cytotoxicity assay (CellTiter-Glo), HCC1954; type: cell-based; settings: Homo sapiens, 3 to 5 days
Method: as §1

[2] = male mice, previously reported; cited from earlier work

Row | SMILES | IC50 (SUDHL1 (CD30 positive)) [nM] | IC50 (SKBR3 (Her2 positive)) [nM] | IC50 [1] [nM] | IC50 (HCC1954 (Her2 positive)) [nM] | maximum tolerated dose (MTD) [2] [mg/kg]
1 | COc1ccc2[nH]c3c(c2c1)CCN(C(N1CCCC1)N1CCCC1)[C@]31CS[C@@H]2c3c(OC(C)=O)c(C)c4c(c3[C@H](COC1=O)N1C2[C@H]2c3c(cc(C)c(OC)c3O)C[C@@H](C1O)N2C)OCO4 (some centres unmarked) [Lurbinectedin Derivative 1] | 0.625 | 0.542 | 3.7 | 2.58 | –
2 | COc1cc2c(cc1O)CCN[C@]21CS[C@@H]2c3c(OC(C)=O)c(C)c4c(c3[C@H](COC1=O)N1[C@@H]2[C@H]2c3c(cc(C)c(OC)c3O)C[C@@H]([C@@H]1O)N2C)OCO4 [trabectedin] | – | – | – | – | 0.15
